Laboratory results as given in patent US11478466B2, “Small molecule promoting osteoblast differentiation” (Cornell University, priority 2019, dated 2022).

B1: RANKL: Receptor activator of nuclear factor kB ligand, positive control to stimulate osteoclast differentiation (protein, UniProt O14788 140-317, looked up)
Tumor necrosis factor ligand …: IRAEKAMVDGSWLDLAKRSKLEAQPFAHLTINATDIPSGSHKVSLSSWYHDRGWAKISNMTFSNGKLIVNQDGFYYLYANICFRHHETSGDLATEYLQLMVYVTKTSIKIPSSHTLMKGGSTKYWSGNSEFHFYSINVGGFFKLRSGEEISIEVSNPSLLDPDQDATYFGAFKVRDID

Tests used:
Assay type in all cases: cell-based, mouse
[1] = system: alkaline phosphatase (ALP); experiment: ALP expression staining in C2C12 cells; details: C2C12, 2 days, 10 μM
Experimental: C2C12 cells were treated for 2 days with 10 μM DIPQUO or structural analogs, 1 ng/ml rhBMP4, or with inhibitors as noted in figure legends, and then fixed briefly in 70% acetone/10% formaldehyde/20% citrate. Staining was achieved using the leukocyte alkaline phosphatase kit (Sigma 86R-1KT) according to the manufacturer's instructions. Expression of ALP was confirmed and quantified by flow cytometric analysis, using an Accuri C6 flow cytometer. Briefly, control- or DIPQUO-treated C2C12 cells were detached and harvested on day 2 using PBS-based enzyme-free cell detachment solution (ThermoFisher). 2×10^5 cells were incubated on ice for 30 minutes with 10 μl APC-conjugated ALPL antibody (R&D Systems), and washed in ice-cold PBS before analysis. Live cells were gated and analyzed in CFlow Plus software and then data was converted to FlowJo to achieve publication-level resolution. For siRNA experiments, gene-specific oligonucleotides were obtained for mouse p38-alpha (Cell Signaling) and p38-beta (Santa Cruz). Signal Silence scramble siRNA control oligonucleotide was purchased from Cell Signaling. C2C12 cells at 70% confluency were transfected in 12-well plates using Lipofectamine RNAiMax reagent (Invitrogen) according to manufacturer's instructions. Transfected cells were treated 24 hours later with DMSO or 10 μM DIPQUO, and siRNA transfection was repeated after 48 hours without changing culture media. After an additional 3 days, cells were either fixed and stained for ALP expression or analyzed for ALP activity using the AttoPhos Substrate kit. Hemagglutinin and FLAG epitope-tagged MKK3 (pMT2-HA-MKK3) and MKK6 (pcDNA3-FLAG-MKK6) constructs were obtained from Addgene and transfected into C2C12 cells using Lipofectamine LTX with Plus Reagent (ThermoFisher) according to manufacturer's instructions and cell extracts analyzed for protein expression and activity as described below.

p38 MAPK = experiment: Western blotting of p38 MAPK phosphorylation in C2C12 cells; details: C2C12, western blotting
Experimental: (§1) Whole cell extracts were collected from C2C12 or BRITER cells in complete lysis buffer (20 mM Tris, 150 mM NaCl, 50 mM NaF, 1% NP40 substitute, HALT protease inhibitor cocktail (ThermoScientific). Proteins were resolved by electrophoresis on pre-cast 10% NuPage Bis-Tris gels (Invitrogen) and transferred to PVDF membranes (Bio-Rad). Membranes were blocked in 5% BSA-TBS-0.5% Tween-20 for 15 minutes, then incubated at 4° overnight with primary antibodies. Antibodies used were: rabbit anti-phospho-p38 MAPK (cat. no. 9211), anti-p38 MAPK XP (8690), anti-phospho-SMAD1/5 (9516), anti-SMAD1 XP (6944), anti-phospho-SMAD2/3 (8828), anti-SMAD2/3 XP (8685), anti-phospho-JNK (4668), anti-SAPK/JNK (9252), anti-phospho-Akt XP (4060), pan anti-Akt (4691), anti-phospho ERK p42/p44 (4377), anti-ERK p42/p44 (9102), anti-phospho-MKK3/6 (12280), anti-MKK3 (8535), anti-phospho-TAK1 (4531), anti-TAK1 (5206), anti-HA (3274), and anti-FLAG (14793); all from Cell Signaling); and mouse anti-p38α (cat. no. 33-1300), anti-p38β (33-8700; both ThermoFisher) and anti-β-actin (Sigma A1978). Proteins were visualized with HRP-conjugated secondary antibodies (Bio-Rad) with WestPico (ThermoFisher) or Immobilon (Millipore) chemiluminescence reagents. Images were obtained and analyzed for relative densitometric relationships on a LI-COR C-DiGit scanner using Image Studio software.

JNK p54 = experiment: Western blotting of JNK in C2C12 cells
Experimental: as §1

[2] = system: RAW 264.7 murine macrophage cell line; experiment: Osteoclast differentiation (TRAP staining, qRT-PCR) in RAW 264.7 cells; details: RAW 264.7, 4 days; DIPQUO 10 μM, RANKL 50 ng/ml
Experimental: To address the specificity of DIPQUO for stimulating an osteogenic versus osteoclastic program, the RAW 264.7 murine macrophage cell line was assayed for osteoclast differentiation by staining for tartrate-resistant acid phosphatase (TRAP) to distinguish multinucleated osteoclasts from macrophages. […] Thus, DIPQUO appears to be primarily supportive of osteogenesis.
The RAW 264.7 macrophage cell line was purchased from ATCC and maintained in DMEM with 10% FBS. Cells were treated with 10 μM DIPQUO or 50 ng/ml RANKL (Sigma) for 4 days. Cells were fixed in 70% acetone/10% formaldehyde/20% citrate and TRAP staining was achieved using the Leukocyte Acid Phosphatase kit (Sigma 387A-1KT).
For quantitative RT-PCR analysis of gene expression in C2C12 cultures, cells were treated for 2 days with 10 μM DIPQUO and harvested into Trizol reagent (Invitrogen). One microgram of RNA was reverse transcribed using the VILO-RT kit (Invitrogen) to generate cDNA, which was diluted 1:25 in RNase-free H2O for qPCR with Sybr green using the Roche 480 II LightCycler and the 2^−ΔΔCT method (Livak and Schmittgen, 2001). For analysis of osteoclast gene expression, RAW 264.7 cells were treated with DMSO, 50 ng/ml RANKL, or 10 μM DIPQUO for 4 days, then harvested into Trizol reagent and processed as above. Mouse qPCR primers are as follows. Runx2: F([…]) (SEQ ID NO:1); R([…]) (SEQ ID NO:2); Dlx5: F([…]) (SEQ ID NO:3); R([…]) (SEQ ID NO:4); Osterix: F([…]) (SEQ ID NO:5); R([…]) (SEQ ID NO:6); ALP: F([…]) (SEQ ID NO:7); R([…]) (SEQ ID NO:8); Osteocalcin: F([…]) (SEQ ID NO:9); R([…]) (SEQ ID NO:10); Osteoactivin: F([…]) (SEQ ID NO:11); R([…]) (SEQ ID NO:12); CTSK: F([…]) (SEQ ID NO:13); R([…]) (SEQ ID NO:14); MMP9: F([…]) (SEQ ID NO:15); R([…]) (SEQ ID NO:16); Gapdh F([…]) (SEQ ID NO:17); R([…]) (SEQ ID NO:18). RNA-seq studies were carried out with the assistance of the Weill Cornell Genomics Core Facility, using the Illumina HiSeq4000 next-generation sequencer to generate reads from cDNA libraries generated from three biological replicates of day 2 DMSO- or DIPQUO-treated C2C12 cells. […]

Molecule	ALP expression by staining [1]	p38 MAPK signaling (phosphorylation) (p38 MAPK)	JNK p54 signaling (JNK p54)	TRAP staining of multinucleated osteoclasts [2]
N#CC(c1ccnc(NCCc2cccnc2)n1)c1nc2ccccc2s1 (stereo not shown) [JNK inhibitor V, reference compound]	did not lead to ALP-positive staining	activate p38 MAPK	suppress JNK p54	
B1				found to promote both TRAP staining
